Assay: Antiproliferative activity against human MDR1 transfected mouse L5178Y cell line

Compound | IC50
COc1ccc(CCN(C)CCN2C(=O)C3C4c5ccccc5C(c5ccccc54)C3C2=O)cc1OC (stereo not drawn) | 4.23 µM
COc1ccc(CCN(C)CC#CCN2C(=O)C3C4c5ccccc5C(c5ccccc54)C3C2=O)cc1OC (stereo not drawn) | 2.55 µM
COc1ccc(CCN(C)CCCN2C(=O)C3C4c5ccccc5C(c5ccccc54)C3C2=O)cc1OC (stereo not drawn) | 5.72 µM
